From patent US8207314B2, “Tumor antigens for prevention and/or treatment of cancer” (Sanofi Pasteur Limited, priority 2003, dated 2012)

Key:
[1] = tested on: autologous T-cell-enriched PBMC preparations; assay: IFN-γ ELISPOT of human T cells stimulated with AAC2-2 peptide pools; type: cell-based; settings: human T cells from HLA-A-0201 donors, after third and fourth round of stimulation with AAC2-2 peptide pools
Description: Using the AAC2-2 amino acid sequence, a library of 9-mer peptides predicted to bind to HLA-A-0201 was constructed (Table III; “N” indicates the sequence is not found within the mouse homolog, while “Y” indicates the sequence is found within the mouse homolog). Twenty-three of the peptides were dissolved in DMSO at 10 mg/ml (Table IV) and used in human PBMC cultures to test for their ability to elicit CD8 and CD4αβ T-cell responses in vitro.
Using GM-CSF and IL-4, dendritic cells (DC) were generated from peripheral blood monocytes of blood donors expressing HLA-A-0201.
These DC were used to stimulate autologous T-cell-enriched PBMC preparations. The T cells were re-stimulated with autologous PBMC and then re-stimulated with CD40-ligand-activated autologous B cells. […] Peptide group 6 includes the following peptides: […] (aa 36-44), […] (aa 41-49), and […] (aa 95-103).

[2] = tested on: peptide-loaded TAP-deficient T2 cells; assay: CTL activity of AAC2-2 peptide pool-specific T-cell line; type: cell-based, human; settings: HLA-A-0201-restricted, T-cell line stimulated by peptide group 6
Description: Thus, it was determined that AAC2-2 peptides are immunogenic in the human immune system.

ILTDVTLLV [EC5]
IFN-γ production (ELISPOT) [1]: dominant activity | CTL activity killing peptide-loaded T2 target cells [2]: dominant activity | CTL activity killing peptide-loaded T2 target cells ([2]; listed as ILTDVTLLV): dominant peptide
